The record followed here is publication PMC4728126, “Stable G protein-effector complexes in striatal neurons: mechanism of assembly and role in neurotransmitter signaling” (eLife, 2015).

This assay concerns the target T1, D1R (Homo sapiens, UniProt P21728).
T1 construct: gene DRD1; cDNA from Missouri S&T cDNA Resource Center, transiently expressed in HEK293T/17 with Golf (Gαolf, Venus-Gβ2γ7), Ric-8B and masGRK3ct-Nluc BRET reporter
The assay is described as follows: BRET G protein activation assay (masGRK3ct-Nluc / Venus-Gβ[…]γ[…]), HEK293T/[…]. It is filed as cell-based. The following applies: antagonist, […], against […] dopamine; Golf co-expressed. (In BRET a luciferase serves as donor, and the signal depends on an acceptor being close.)

T1 sequence (P21728 whole entry): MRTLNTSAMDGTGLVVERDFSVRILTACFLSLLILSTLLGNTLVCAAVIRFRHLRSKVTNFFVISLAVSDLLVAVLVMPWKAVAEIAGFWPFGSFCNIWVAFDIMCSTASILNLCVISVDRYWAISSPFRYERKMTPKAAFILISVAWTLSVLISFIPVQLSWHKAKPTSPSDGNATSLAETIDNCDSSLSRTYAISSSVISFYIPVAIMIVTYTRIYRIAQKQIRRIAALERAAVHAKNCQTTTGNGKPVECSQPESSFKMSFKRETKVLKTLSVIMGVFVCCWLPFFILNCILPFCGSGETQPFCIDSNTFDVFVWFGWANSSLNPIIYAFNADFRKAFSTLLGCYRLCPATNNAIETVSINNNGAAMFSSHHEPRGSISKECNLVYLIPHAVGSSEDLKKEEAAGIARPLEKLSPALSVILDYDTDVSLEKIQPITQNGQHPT

With `CN1CCc2cc(Cl)c(O)cc2[C@H]2c3ccccc3CC[C@@H]21` [SCH39166], the “BRET G protein activation assay (masGRK3ct-Nluc / Venus-Gβ2γ7), HEK293T/17” value is “application of an antagonist SCH39166 facilitates complex re-association and quenching of the BRET response”.
